Measured values taken from US20230309562A1 (priority 2020, published 2023).
Read-outs that look alike come from different tables or passages of the source.

How the values were obtained:
[1] = tested on: SARS COVID-19; type: cell-based; details: for TCID 50% viral kill: 5-minute exposure
[2] = tested on: Influenza A; type: cell-based
[3] = tested on: infectious microorganism; details: cited from earlier work
[4] = tested on: Ebola virus; details: exposure times of at least several minutes required, cited from earlier work

| Compound | TCID 50% viral kill ([1]; 1 ppm) | TCID 50% viral kill ([1]; 2.5 ppm) | TCID 50% viral kill ([1]; 10 ppm) | TCID 50% viral kill ([1]; 25 ppm) | virus kill by HOCl treatment ([1]; concentrations of between 1 ppm and 25 ppm) | TCID 50% viral kill [2] | virus kill by HOCl treatment [2] | growth inhibition ([3]; 2.6 ppm, in 5 minutes) [%] | LD50 ([3]; reported) | destruction of Ebola virus ([4]; 0.5% solution) | destruction of Ebola virus ([4]; 1% solution) |
| --- | --- | --- | --- | --- | --- | --- | --- | --- | --- | --- | --- |
| OCl [HOCl, hypochlorous acid] | viral kill positive | viral kill positive | viral kill positive | viral kill positive | killed | viral kill positive | killed | 100 | 0.0104-0.156 ppm |  |  |
| OCl [sodium hypochlorite, Sodium hypochlorite] |  |  |  |  |  |  |  |  |  | effectively destroy | effectively destroy |
